Experimental data: patent EP0425840A2, “Use of methenamine in the treatment of viral diseases and malign neoplasies” (Jaeger, Karl-Heinz, Dr. med., priority 1989, dated 1991)
Like-named read-outs stand apart in the source and are kept apart here.

Legend:
[1] = test system: L 5178 Y Maus-Lyphom Zellen; assay: Inhibition of cell growth in L 5178 Y cell culture (Coulter counter principle); format: cell-based
From the text: (§1) Die L 5178 Y Maus-Lyphom Zellen wurden in einem MEM-Spinner Medium mit 10 mmol/l HEPES Puffer, 10% fötalem Kalbserum und 100.000 Einheiten/l Penicillin/Steptomycin (Herstellerin Biocrom, Berlin) kultiviert. Bei Kultivierungsstart lagen 100.000 Zellen/ml Kulturmedium vor, wobei sich 60% der Zellen in der S-Phase befanden. HMT wurde zu den Kulturen in verschiedenen Konzentrationen während einer Zeitspanne von 24 Std. zugegeben. Die Populationen und das Zellvolumen wurden mit einem Zytokombgerät (System Michaelis, Mainz) entsprechend dem Coulter Counter-Prinzip bestimmt. Nach der Zellolyse mit 35 mmol/l Natriumzitrat und 0,5% Triton X 100 (Herstellerin Sigma Chemie, München), RNAse Behandlung und […] mit Propidiumjodid wurde die Kerngröße mit Hilfe eines Impulszytofotometers (FACS analizer) Firma Becton and Dickinson) gemessen.

DNA-Polymerasen = assay: Activity of DNA polymerases in the cell nucleus; format: cell-based; settings: no method or concentration given
[2] = cited from earlier work
[3] = test system: L 5178 Y Maus-Lyphom Zellen; assay: Nucleus size after cell lysis and propidium iodide staining (impulse cytophotometer); format: cell-based
From the text: HMT wurde zu den Kulturen in verschiedenen Konzentrationen während einer Zeitspanne von 24 Std. zugegeben. Die Populationen und das Zellvolumen wurden mit einem Zytokombgerät (System Michaelis, Mainz) entsprechend dem Coulter Counter-Prinzip bestimmt. Nach der Zellolyse mit 35 mmol/l Natriumzitrat und 0,5% Triton X 100 (Herstellerin Sigma Chemie, München), RNAse Behandlung und […] mit Propidiumjodid wurde die Kerngröße mit Hilfe eines Impulszytofotometers (FACS analizer) Firma Becton and Dickinson) gemessen.
Die Zellkulturen wurden wie unter Beispiel 1 beschrieben behandelt. Bei der Bewertung der Nucleusgröße wurde als Kontrolle die Verteilung der Kerngröße bei unbehandelten Zellen zugrunde gelegt.

[4] = test system: L 5178 Y Maus-Lyphom Zellen; assay: Change of cell volume in L 5178 Y cell culture (Coulter counter principle); format: cell-based
From the text: as §1

reversen Transkriptase = assay: Activity of reverse transcriptase in the cell nucleus; format: cell-based; settings: no method or concentration given

Work on `C1N2CN3CN1CN(C2)C3` [HMT, Methenamine] yielded an activity at 100 µg/mL ([1]; Mus musculus, L5178Y, 24 h, 0,1 mg HMT/ml Kulturvolumen, 24 Std., Kontrolle = 100, read-out: Zellwachstum (%)) of 8%, an activity at 20 µg/mL ([1]; Mus musculus, L5178Y, 24 h, 0,02 mg HMT/ml Kulturvolumen, 24 Std., Kontrolle = 100, read-out: Zellwachstum (%)) of 61% and an activity at 200 µg/mL ([1]; Mus musculus, L5178Y, 24 h, 0,2 mg HMT/ml Kulturvolumen, 24 Std., Kontrolle = 100, read-out: Zellwachstum (%)) of 6%. For the same compound, the activity at 50 µg/mL ([1]; Mus musculus, L5178Y, 24 h, 0,05 mg HMT/ml Kulturvolumen, 24 Std., Kontrolle = 100, read-out: Zellwachstum (%)) was 35%, the Zellwachstum ([1]; from a concentration of 1 x 10⁻³ mg/ml HMT downwards) was “nicht mehr statistisch signifikant beeinflußt” and the “Aktivitäten der DNA-Polymerasen im Zellkern” value (DNA-Polymerasen) was “beeinträchtigt”. The “dissoziiert in Formaldehyd und Ammoniumionen” value ([2]; pH 5) was 20%, the “dissoziiert in Formaldehyd und Ammoniumionen” value ([2]; pH 6) was 6% and the “Anzahl der Kerne mit reduzierter Nucleusgröße (%)” value ([3]; 0,1 mg HMT/ml Kulturvolumen, kernfragmente) was 79,9 (kernfragmente) %. For the same compound, the “Anzahl der Kerne mit reduzierter Nucleusgröße (%)” value ([3]; 0,02 mg HMT/ml Kulturvolumen, Kernfragmente) was 1,0 (Kernfragmente) %, the “Anzahl der Kerne mit reduzierter Nucleusgröße (%)” value ([3]; 0,2 mg HMT/ml Kulturvolumen, Kernfragmente) was 81,3 (Kernfragmente) % and the “Anzahl der Kerne mit reduzierter Nucleusgröße (%)” value ([3]; 0,05 mg HMT/ml Kulturvolumen, Kernfragmente) was 25,1 (Kernfragmente) %. The “Anzahl der Kerne mit reduzierter Nucleusgröße (%)” value ([3]; 2 x 10⁻² mg HMT/ml Kulturvolumen) was 6,05+2,07%, the “Anzahl der Kerne mit reduzierter Nucleusgröße (%)” value ([3]; 2 x 10⁻³ mg HMT/ml Kulturvolumen) was 19,62±3,89% and the “Anzahl der Kerne mit reduzierter Nucleusgröße (%)” value ([3]; 2 x 10⁻¹² mg HMT/ml Kulturvolumen) was 25,77±4,29%. The “Anzahl der Kerne mit reduzierter Nucleusgröße (%)” value ([3]; 2 x 10⁻¹¹ mg HMT/ml Kulturvolumen) was 27,17±4,13%, the “Anzahl der Kerne mit reduzierter Nucleusgröße (%)” value ([3]; 2 x 10⁻⁴ mg HMT/ml Kulturvolumen) was 13,41±3,71% and the “Anzahl der Kerne mit reduzierter Nucleusgröße (%)” value ([3]; 2 x 10⁻⁵ mg HMT/ml Kulturvolumen) was 11,14±3,60%. The “Anzahl der Kerne mit reduzierter Nucleusgröße (%)” value ([3]; 2 x 10⁻⁶ mg HMT/ml Kulturvolumen) was 4,50±2,92%, the “Anzahl der Kerne mit reduzierter Nucleusgröße (%)” value ([3]; 2 x 10⁻⁷ mg HMT/ml Kulturvolumen) was 1,11±0,58% and the “Anzahl der Kerne mit reduzierter Nucleusgröße (%)” value ([3]; 2 x 10⁻⁸ mg HMT/ml Kulturvolumen) was 20,86±4,07%. For the same compound, the “Anzahl der Kerne mit reduzierter Nucleusgröße (%)” value ([3]; 5 x 10⁻² mg HMT/ml Kulturvolumen) was 4,87±91,93%, the “Kerne größenreduziert im Vergleich zu den Kontrollen” value ([3]; range of normal cell volume, 10⁻⁴- 10⁻¹² mg HMT/ml Kulturvolumen) was 25% and the “Zellvolumen (µm³)” value ([4]; 0,1 mg HMT/ml Kulturvolumen, Zellfragmente, Mittelwert) was 339,06 µm³. The “Zellvolumen (µm³)” value ([4]; 0,2 mg HMT/ml Kulturvolumen, Zellfragmente, Mittelwert) was 323,75 µm³, the “Zellvolumen (µm³)” value ([4]; 1 x 10⁻² mg HMT/ml Kulturvolumen, Kontrolle 1470,66±390,71) was 1540,82±401,32 µm³ and the “Zellvolumen (µm³)” value ([4]; 1 x 10⁻³ mg HMT/ml Kulturvolumen, Kontrolle 1470,66±390,71) was 1422,27±398,09 µm³. For the same compound, the “Zellvolumen (µm³)” value ([4]; 2 x 10⁻² mg HMT/ml Kulturvolumen, Kontrolle 1470,66±390,71) was 1718,16±487,10 µm³, the “Zellvolumen (µm³)” value ([4]; 2 x 10⁻³ mg HMT/ml Kulturvolumen, Kontrolle 1470,66±390,71) was 1479,35±387,79 µm³ and the “Zellvolumen (µm³)” value ([4]; 2 x 10⁻¹² mg HMT/ml Kulturvolumen, Kontrolle 1470,66±390,71) was 1411,23±395,92 µm³. For the same compound, the “Zellvolumen (µm³)” value ([4]; 2 x 10⁻¹¹ mg HMT/ml Kulturvolumen, Kontrolle 1470,66±390,71) was 1484,77±412,43 µm³, the “Zellvolumen (µm³)” value ([4]; 2 x 10⁻⁴ mg HMT/ml Kulturvolumen, Kontrolle 1470,66±390,71) was 1365,68±371,21 µm³ and the “Zellvolumen (µm³)” value ([4]; 2 x 10⁻⁵ mg HMT/ml Kulturvolumen, Kontrolle 1470,66±390,71) was 1289,92±350,94 µm³. For the same compound, the “Zellvolumen (µm³)” value ([4]; 2 x 10⁻⁶ mg HMT/ml Kulturvolumen, Kontrolle 1470,66±390,71) was 1295,17±379,65 µm³, the “Zellvolumen (µm³)” value ([4]; 2 x 10⁻⁷ mg HMT/ml Kulturvolumen, Kontrolle 1470,66±390,71) was 1279,94±388,43 µm³ and the “Zellvolumen (µm³)” value ([4]; 2 x 10⁻⁸ mg HMT/ml Kulturvolumen, Kontrolle 1470,66±390,71) was 1291,81±410,11 µm³. For the same compound, the “Zellvolumen (µm³)” value ([4]; 2 x 10⁻⁹ mg HMT/ml Kulturvolumen, Kontrolle 1470,66±390,71) was 1292,70±398,55 µm³, the “Zellvolumen (µm³)” value ([4]; 5 x 10⁻² mg HMT/ml Kulturvolumen, Kontrolle 1470,66±390,71) was 1736,76±438,98 µm³ and the Zellvolumen ([4]; between 10⁻⁴ - 10⁻¹² mg/ml Kulturvolumen) was “korrespondiert das Zellvolumen mit dem Zellvolumen der Kontrollen”. The “Aktivitäten der reversen Transkriptase im Zellkern” value (reversen Transkriptase) was “beeinträchtigt”.

With `N.N.[Cl][Pt][Cl]` [Cisplatin] the “Anzahl der Kerne mit reduzierter Nucleusgröße (%)” value ([3]; Cisplatin 0,5 x 10⁻⁵ g/ml Kulturvolumen) was 43,51±5,62%, the “Anzahl der Kerne mit reduzierter Nucleusgröße (%)” value ([3]; Cisplatin 0,5 x 10⁻⁶ g/ml Kulturvolumen) was 6,97±2,81% and the “Anzahl der Kerne mit reduzierter Nucleusgröße (%)” value ([3]; Cisplatin 1,0 x 10⁻⁶ g/ml Kulturvolumen) was 9,95±3,13%. The “Anzahl der Kerne mit reduzierter Nucleusgröße (%)” value ([3]; Cisplatin 1,0 x 10⁻⁷ g/ml Kulturvolumen) was 4,07±2,24% and the “Anzahl der Kerne mit reduzierter Nucleusgröße (%)” value ([3]; Cisplatin 2,0 x 10⁻⁶ g/ml Kulturvolumen) was 18,62±4,08%.
